Assay results from patent US11591341B2 (ALIGOS THERAPEUTICS, INC., priority 2019, dated 2023).
Like-named read-outs stand apart in the source and are kept apart here.

System: HBV
Test: HBV-DNA Antiviral Assay Using HepG2.2.15 Cells (extracellular HBV DNA by qPCR)
Type: cell-based
Conditions: Hepatitis B virus
Procedure: The following assay procedure describes the HBV antiviral assay. This assay uses HepG2.2.15 cells, which have been transfected with HBV genome, and extracellular HBV DNA quantification as endpoint. Cell viability is assessed in parallel by measuring the intracellular ATP content using the CellTiter-Glo© reagent from Promega.
On day 0, HepG2.2.15 cells were seeded in 96-well plates at a density of 6.0×10^4 cells/well (0.1 mL/well). The cells were incubated at 37° C. and 5% CO2.
On day 1, the test articles were diluted and added to cell culture wells (8 concentrations, 4-fold dilution, in duplicate). GLS4, Tenofovir and Sorafenib were used as reference compounds. 100 μL of culture medium containing the compounds was added to the plate, and the final total volume per well was 200 μL. The final concentration of DMSO in the culture medium was 0.5%. The plate map of compound treatment is shown below. The cells were cultured at 37° C. and 5% CO2 for 3 days.
On day 4, the plates were refreshed with culture media with compounds.
On day 7, cell viability was assessed using the CellTiter-Glo, and the cell culture supernatants were collected for determination of HBV DNA by qPCR.
Extracellular DNA was isolated with QIAamp 96 DNA Blood Kit per the manufacturer's manual. HBV DNA was then quantified by qPCR with HBV specific primers and probes as specified in Table 1 using the FastStart Universal MasterMix from Roche on an ABI-7900HT. The PCR cycle program consisted of 95° C. for 10 min, followed by 40 cycles at 95° C. for 15 sec and 60° C. for 1 min.
A DNA standard was prepared by dilution of the pAAV2 HBV1.3 plasmid with concentrations ranging from 10 to 1×10^7 copies/μL and used to generate a standard curve by plotting Ct value vs. the concentration of the HBV plasmid DNA standard. The quantity of HBV DNA in each sample was determined by interpolating from the standard curve.
Cell viability was calculated as follows: % Cell viability=(luminescence value of test sample−average luminescence value of blank)/(average luminescence value of 0.5% DMSO control−average luminescence of blank)×100%. HBV DNA inhibition was calculated as follows: 100-(HBV DNA copy number of test sample−HBV DNA copy number of ETV)/HBV DNA copy number of 0.5% DMSO control−HBV DNA copy number of ETV)×100%. The CC50, EC50 and EC90 values were determined by dose-response curves fitted by GraphPad Prism using “log (agonist) vs. response—Variable slope”.

[1] = 168 h, HBV DNA inhibition, HepG2.2.15 cells, extracellular HBV DNA by qPCR on day 7, read-out: EC50

Row | Compound | EC50 [1] | EC50 (HepG2.2.15, 168 h)
1 | C[C@@H]1Cn2c(c(C(=O)N[C@H](C)c3ccccc3)n(-c3ccc(-n4cccn4)cc3)c2=O)CN1C(=O)c1ccc(Br)c(Cl)c1 (mixture of isomers) [Example 466, (6RS)-7-(4-bromo-3-chloro-benzoyl)-6-methyl-3-oxo-N-[(1R)-1-phenylethyl]-2-(4-pyrazol-1-ylphenyl)-6,8-dihydro-5H-imidazo[1,5-a]pyrazine-1-carboxamide] | 500 to 5000 nM | –
2 | C[C@@H](NC(=O)c1c2n(c(=O)n1-c1ccc(-n3cccn3)cc1)C[C@H](C)N(C(=O)c1ccc(Br)c(Cl)c1)C2)c1ccccc1 (mixture of isomers) [Example 467, (6SR)-7-(4-bromo-3-chloro-benzoyl)-6-methyl-3-oxo-N-[(1R)-1-phenylethyl]-2-(4-pyrazol-1-ylphenyl)-6,8-dihydro-5H-imidazo[1,5-a]pyrazine-1-carboxamide] | 100 to 500 nM | –
3 | CC1Cn2c(c(C(=O)NCc3ccccc3-c3ncccn3)n(-c3ccc(-n4cccn4)cc3)c2=O)CN1C(=O)c1ccc(Br)c(Cl)c1 (racemic) [Example 468, rac-(6R)-7-(4-bromo-3-chloro-benzoyl)-6-methyl-3-oxo-2-(4-pyrazol-1-ylphenyl)-N-[(2-pyrimidin-2-ylphenyl)methyl]-6,8-dihydro-5H-imidazo[1,5-a]pyrazine-1-carboxamide] | 100 to 500 nM | –
4 | C[C@H]1Cn2c(c(C(=O)NCc3ccccc3-c3ncccn3)n(-c3ccc(-n4cccn4)cc3)c2=O)CN1C(=O)c1ccc(Br)c(Cl)c1 (racemic) [Example 469, rac-(6S)-7-(4-bromo-3-chloro-benzoyl)-6-methyl-3-oxo-2-(4-pyrazol-1-ylphenyl)-N-[(2-pyrimidin-2-ylphenyl)methyl]-6,8-dihydro-5H-imidazo[1,5-a]pyrazine-1-carboxamide] | < 100 nM | –
5 | C[C@@H]1Cn2c(c(C(=O)NCc3ccccc3-c3ncccn3)n(-c3ccc(-n4cccn4)cc3)c2=O)CN1C(=O)c1ccc(Br)c(C#N)c1 (stereo in doubt) [Example 470, rac-(6R)-7-(4-bromo-3-cyano-benzoyl)-6-methyl-3-oxo-2-(4-pyrazol-1-ylphenyl)-N-[(2-pyrimidinn-2-ylphenyl)methyl]-6,8-dihydro-5H-imidazo[1,5-a]yrazine-1-carboxamide] | 100 to 500 nM | –
6 | C[C@H]1Cn2c(c(C(=O)NCc3ccccc3-c3ncccn3)n(-c3ccc(-n4cccn4)cc3)c2=O)CN1C(=O)c1ccc(Br)c(C#N)c1 (stereo in doubt) [Example 471, rac-(6S)-7-(4-bromo-3-cyano-benzoyl)-6-methyl-3-oxo-2-(4-pyrazol-1-ylphenyl)-N-[(2-pyrimidin-2-ylphenyl)methyl]-6,8-dihydro-5H-imidazo[1,5-a]pyrazine-1-carboxamide] | 500 to 5000 nM | –
7 | C[C@@H](NC(=O)c1c2n(c(=O)n1-c1ccc(OC3CC3)cc1)CCN(C(=O)c1ccc(Br)c(Cl)c1)C2)c1ccccc1-n1cncn1 (stereo in doubt) [Example 472, 7-(4-bromo-3-chloro-benozyl)-2-[4-(cyclopropoxy)phenyl]-3-oxo-N-[rac-(1R)-1-[2-(1,2,4-triazol-1-yl)phenyl]ethyl]-6,8-dihydro-5H-imidazo[1,5-a]pyrazine-1-carboxamide] | 500 to 5000 nM | –
8 | C[C@H](NC(=O)c1c2n(c(=O)n1-c1ccc(OC3CC3)cc1)CCN(C(=O)c1ccc(Br)c(Cl)c1)C2)c1ccccc1-n1cncn1 (stereo in doubt) [Example 473, 7-(4-bromo-3-chloro-benzoyl)-2-[4-(cyclopropoxy)phenyl]-3-oxo-N-[rac-(1S)-1-[2-(1,2,4-triazol-1-yl)phenyl]ethyl]-6,8-dihydro-5H-imidazo[1,5-a]pyrazine-1-carboxamide] | > 5000 nM | –
9 | O=C1NCCCn2c1c1n(c2=O)CCN(C(=O)Nc2ccc(F)c(Cl)c2)C1 [Example 1, N-(3-chloro-4-fluorophenyl)-6,12-dioxo-1,3,4,8,9,10,11,12-octahydro-2H,6H-pyrazino[1′,2′:3,4]imidazo[1,5-a][1,4]diazepine-2-carboxamide] | > 5000 nM | –
10 | CN1CCCn2c(c3n(c2=O)CCN(C(=O)Nc2ccc(F)c(Cl)c2)C3)C1=O [Example 2, N-(3-chloro-4-fluorophenyl)-11-methyl-6,12-dioxo-1,3,4,8,9,10,11,12-octahydro-2H,6H-pyrazino[1′,2′:3,4]imidazo[1,5-a][1,4]diazepine-2-carboxamide] | 500 to 5000 nM | –
11 | O=C(Nc1ccc(F)c(Cl)c1)N1CCn2c(c3n(c2=O)CCCN(Cc2ccccc2)C3=O)C1 [Example 3, 11-benzyl-N-(3-chloro-4-fluorophenyl)-6,12-dioxo-1,3,4,8,9,10,11,12-octahydro-2H,6H-pyrazino[1′,2′:3,4]imidazo[1,5-a][1,4]diazepine-2-carboxamide] | – | 100 to 500 nM
12 | COc1ccc(CN2CCCn3c(c4n(c3=O)CCN(C(=O)Nc3ccc(F)c(Cl)c3)C4)C2=O)cc1 [Example 4, N-(3-chloro-4-fluorophenyl)-11-(4-methoxybenzyl)-6,12-dioxo-1,3,4,8,9,10,11,12-octahydro-2H,6H-pyrazino[1′,2′:3,4]imidazo[1,5-a][1,4]diazepine-2-carboxamide] | < 100 nM | –
13 | O=C1NCCCn2c1c1n(c2=O)CCN(C(=O)c2ccc(Br)cc2)C1 [Example 5, 4-(4-bromobenzoyl)-4,7,9,13-tetraazatricyclo[7.5.0.0^[2,7]]tetradec-1-ene-8,14-dione] | > 5000 nM | –
14 | O=C1NCCCn2c1c1n(c2=O)CCN(C(=O)c2ccc(Br)c(F)c2)C1 [Example 6, 2-(4-bromo-3-fluorobenzoyl)-1,2,3,4,8,9,10,11-octahydro-6H,12H-pyrazino[1′,2′:3,4]imidazo[1,5-a][1,4]diazepine-6,12-dione] | > 5000 nM | –
15 | O=C1NCCCn2c1c1n(c2=O)CCN(C(=O)c2ccc(Br)c(Cl)c2)C1 [Example 7, 2-(4-bromo-3-chlorobenzoyl)-1,2,3,4,8,9,10,11-octahydro-6H,12H-pyrazino[1′,2′:3,4]imidazo[1,5-a][1,4]diazepine-6,12-dione] | > 5000 nM | –
16 | CN1CCCn2c(c3n(c2=O)CCN(C(=O)c2ccc(Br)c(Cl)c2)C3)C1=O [Example 8, 2-(4-bromo-3-chlorobenzoyl)-11-methyl-1,2,3,4,8,9,10,11-octahydro-6H,12H-pyrazino[1′,2′:3,4]imidazo[1,5-a][1,4]diazepine-6,12-dione] | > 5000 nM | –
17 | COc1ccc(CN2CCCn3c(c4n(c3=O)CCN(C(=O)c3ccc(Br)c(Cl)c3)C4)C2=O)cc1 [Example 9, 2-(4-bromo-3-chlorobenzoyl)-11-(4-methoxybenzyl)-1,2,3,4,8,9,10,11-octahydro-6H,12H-pyrazino[1′,2′:3,4]imidazo[1,5-a][1,4]diazepine-6,12-dione] | 100 to 500 nM | –
18 | CC(C)NC(=O)c1c2n(c(=O)n1-c1ccccc1)CCN(C(=O)Nc1ccc(F)c(Cl)c1)C2 [Example 10, N^7-(3-chloro-4-fluorophenyl)-3-oxo-2-phenyl-N1-(propan-2-yl)-2H,3H,5H,6H,7H,8H-imidazo[1,5-a]pyrazine-1,7-dicarboxamide] | 500 to 5000 nM | –
19 | COc1ccc(CNC(=O)c2c3n(c(=O)n2-c2ccccc2)CCN(C(=O)Nc2ccc(F)c(Cl)c2)C3)cc1 [Example 11, N^7-(3-chloro-4-fluorophenyl)-N1-[(4-methoxyphenyl)methyl]-3-oxo-2-phenyl-2H,3H,5H,6H,7H,8H-imidazo[1,5-a]pyrazine-1,7-dicarboxamide] | 100 to 500 nM | –
20 | CC(C)NC(=O)c1c2n(c(=O)n1-c1ccccc1)CCN(C(=O)c1ccc(Br)c(Cl)c1)C2 [Example 12, 7-(4-bromo-3-chlorobenzoyl)-3-oxo-2-phenyl-N-(propan-2-yl)-2H,3H,5H,6H,7H,8H-imidazo[1,5-a]pyrazine-1-carboxamide] | > 5000 nM | –
21 | COc1ccc(CNC(=O)c2c3n(c(=O)n2-c2ccccc2)CCN(C(=O)c2ccc(Br)c(Cl)c2)C3)cc1 [Example 13, 7-(4-bromo-3-chlorobenzoyl)-N-[(4-methoxyphenyl)methyl]-3-oxo-2-phenyl-2H,3H,5H,6H,7H,8H-imidazo[1,5-a]pyrazine-1-carboxamide] | 500 to 5000 nM | –
22 | COc1ccc(CNC(=O)c2c3n(c(=O)n2Cc2ccccc2)CCN(C(=O)c2ccc(Br)c(Cl)c2)C3)cc1 [Example 14, 2-benzyl-7-(4-bromo-3-chlorobenzoyl)-N-[(4-methoxyphenyl)methyl]-3-oxo-2H,3H,5H,6H,7H,8H-imidazo[1,5-a]pyrazine-1-carboxamide] | > 5000 nM | –
